We go through 16 compounds from PMC9820167, “Design and Synthesis of Conformationally Flexible Scaffold as Bitopic Ligands for Potent D3-Selective Antagonists” (International Journal of Molecular Sciences, 2022).

Assay [1] has as its target T1, human D3 receptors (Homo sapiens, UniProt P35462). As to the kind of experiment: Radioligand binding assay with [125I]IABN, D3 receptor. Also noted: expressed in transfected cells; host or cells: HEK293. To be noted: for Ki: [125I]IABN, D3 receptors expressed in HEK cells, mean ± SEM, three experiments, HCl salts, read-out: Ki ± SEM (nM) D3; for D2/D3: selectivity ratio of Ki D2 / Ki D3 (fold). On the procedure:
(§1) Two different assays were used to evaluate the properties of the analogs described above. The receptor binding affinity was measured by radioligand binding assays using [^125I]IABN with D2 or D3 receptors highly expressed HEK293 cells. The functional activity of the analogs was determined using a β-arrestin recruitment assay. The assay was initially conducted in agonist binding mode to confirm that they function as antagonists at the D3 receptor. Once this efficacy was confirmed, the assay was conducted in antagonist mode to determine the ability of the antagonist to compete with dopamine at the D3 receptor. The results of the antagonist mode assay are reported as IC50 values.
(§2) Ki values for D2 and D3 receptors were measured using [^125I]IABN in human D2 and D3 receptors expressed in HEK cells, respectively. A filtration binding assay was used to characterize membrane-associated receptor binding properties. The details for the procedures were described in the literature.

For assay [2], the target named is T1, human D3 receptors. As to the kind of experiment: β-arrestin recruitment assay (antagonist mode, competition with dopamine). The assay is classed as cell-based. Also noted: expressed in transfected cells. Conditions: for Emax: percentage of the maximum inhibition of dopamine at EC80 concentration, read-out: Imax (% Control); for IC50: potency for D3 receptors, CHO-K1 cells, vs 30 nM (EC80) dopamine, mean ± SD, three experiments, read-out: IC50. The procedure:
as §1
CHO-K1 cells which were overexpressed human D3 receptors were cultured in assaycomplete^TM cell culture kit 107. Cells were seeded at a density of 25,000 cells per well of 96-well plate, and incubated at 5% CO2, 37 °C. Two days later, test compounds were dissolved in DMSO, and diluted with 11-point series in phosphate-buffered saline (PBS). Prepared compounds were added to the cells, and it was incubated for 30 min at 5% CO2, 37 °C. Then, cells were treated with 30 nM (EC80) of dopamine, and the plate was incubated another 90 min. PathHunter^TM detection reagent was added to each well, and then plate was incubated for 80 min at RT in the dark. The chemiluminescent signal was measured by PerkinElmer Enspire plate reader (PerkinElmer, Boston, MA). Data were analyzed by Prism followed by non-linear regression.
(In general: Arrestin recruitment assays detect the binding of arrestin to an activated receptor.)

The target of assay [3] is T2, human D2 receptors (Homo sapiens, UniProt P14416).
T2 construct: expressed in transfected cells; host or cells: HEK293
T2 sequence (P14416 whole entry): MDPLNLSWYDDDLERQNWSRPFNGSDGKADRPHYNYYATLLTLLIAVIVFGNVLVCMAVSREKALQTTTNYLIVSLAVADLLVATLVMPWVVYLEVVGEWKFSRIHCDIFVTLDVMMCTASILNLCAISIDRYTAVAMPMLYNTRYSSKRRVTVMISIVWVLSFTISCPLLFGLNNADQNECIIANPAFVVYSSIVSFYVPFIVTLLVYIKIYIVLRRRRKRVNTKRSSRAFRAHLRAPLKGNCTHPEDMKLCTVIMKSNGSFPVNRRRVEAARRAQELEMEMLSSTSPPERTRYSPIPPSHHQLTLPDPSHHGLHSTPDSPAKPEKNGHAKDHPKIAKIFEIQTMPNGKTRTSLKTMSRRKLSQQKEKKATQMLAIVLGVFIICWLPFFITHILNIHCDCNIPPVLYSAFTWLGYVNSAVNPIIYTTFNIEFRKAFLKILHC
As to the kind of experiment: Radioligand binding assay with [125I]IABN, D2 receptor. Conditions: [125I]IABN, D2 receptors expressed in HEK cells; mean ± SEM, three experiments; HCl salts; read-out: Ki ± SEM (nM) D2. On the procedure: Two different assays were used to evaluate the properties of the analogs described above. The receptor binding affinity was measured by radioligand binding assays using [^125I]IABN with D2 or D3 receptors highly expressed HEK293 cells. The functional activity of the analogs was determined using a β-arrestin recruitment assay. […] The results of the antagonist mode assay are reported as IC50 values.
as §2

Assay [4] addresses D2 receptors. Conditions: cited from earlier work.

Like-named read-outs stand apart in the source and are kept apart here.

T1 sequence (P35462 whole entry): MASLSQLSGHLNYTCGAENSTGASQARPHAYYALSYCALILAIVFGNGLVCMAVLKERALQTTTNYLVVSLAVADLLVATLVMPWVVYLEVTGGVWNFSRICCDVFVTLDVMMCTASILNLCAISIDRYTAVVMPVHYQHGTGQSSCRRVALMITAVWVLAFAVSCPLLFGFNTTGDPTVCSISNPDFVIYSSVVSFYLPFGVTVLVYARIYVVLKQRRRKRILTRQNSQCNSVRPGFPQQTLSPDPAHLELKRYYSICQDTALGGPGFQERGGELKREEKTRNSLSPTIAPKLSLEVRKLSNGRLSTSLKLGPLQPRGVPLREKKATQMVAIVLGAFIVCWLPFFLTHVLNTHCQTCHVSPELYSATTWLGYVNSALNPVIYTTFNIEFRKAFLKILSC

Consider `CCN(CCCCN(C)C)CCNC(=O)c1cc(CCCF)cc(OC)c1OC` [6a, N-(2-((4-(Dimethylamino)butyl)(ethyl)amino)ethyl)-5-(3-fluoropropyl)-2,3-dimethoxybenzamide], for which, in assay [1], the Ki amounted to 1760 ± 942 nM and the D2/D3 is 2.6. In addition, in assay [2], the Emax came out at 92.7 ± 5.4% and the IC50 – broadly, the concentration that inhibits the measured activity by half – was more than 1000 nM. For the same compound, in assay [3], the Ki is 4560 ± 2450 nM.
The corresponding values for `CCN(CCCCCN(C)C)CCNC(=O)c1cc(CCCF)cc(OC)c1OC` [6b, N-(2-((5-(Dimethylamino)pentyl)(ethyl)amino)ethyl)-5-(3-fluoropropyl)-2,3-dimethoxybenzamide] are 1240 ± 438 nM, 2.3, 98.4 ± 2.9%, 430 ± 467 nM and 2810 ± 571 nM.
For `CCN(CCCCN(C)C)CCNC(=O)c1cc(Br)cc(OC)c1OC` [6c, 5-Bromo-N-(2-((4-(dimethylamino)butyl)(ethyl)amino)ethyl)-2,3-dimethoxybenzamide] the same measures were 1630 ± 165 nM, 3.3, 98 ± 5.6%, more than 1000 nM and 5420 ± 1040 nM.
As to `CCN(CCCCCN(C)C)CCNC(=O)c1cc(Br)cc(OC)c1OC` [6d, 5-Bromo-N-(2-((5-(dimethylamino)pentyl)(ethyl)amino)ethyl)-2,3-dimethoxybenzamide], in assay [1], the Ki amounted to 141 ± 26 nM and the D2/D3 stood at 3.2. Moreover, in assay [2], the Emax is 94 ± 6.4% and the IC50 stood at 152 ± 185 nM. For the same compound, the Ki in assay [3] was 449 ± 90 nM.
As to `CCN(CCCCNC(=O)c1ccc(-c2cccs2)cc1)CCNC(=O)c1cc(Br)cc(OC)c1OC` [9b, 5-Bromo-N-(2-(ethyl(4-(4-(thiophen-2-yl)benzamido)butyl)amino)ethyl)-2,3-dimethoxybenzamide], in assay [1], the Ki was 8 ± 0.8 nM and the D2/D3 is reported as 12.9. In assay [2], the Emax was determined as 70.8 ± 7.3% and the IC50 was 104 ± 136 nM. The Ki in assay [3] was 103 ± 14 nM.
Consider `CCN(CCCCSc1nnc(-c2ccccc2)n1C)CCNC(=O)c1cc(Br)cc(OC)c1OC` [11a, 5-Bromo-N-(2-(ethyl(4-((4-methyl-5-phenyl-4H-1,2,4-triazol-3-yl)thio)butyl)amino)ethyl)-2,3-dimethoxybenzamide], for which, in assay [1], the Ki was 125 ± 2 nM and the D2/D3 is reported as 2.7. The Ki in assay [3] came to 342 ± 23 nM.
For `CCN(CCCCCSc1nnc(-c2ccccc2)n1C)CCNC(=O)c1cc(Br)cc(OC)c1OC` [11b, 5-Bromo-N-(2-(ethyl(5-((4-methyl-5-phenyl-4H-1,2,4-triazol-3-yl)thio)pentyl)amino)ethyl)-2,3-dimethoxybenzamide] the same measures were 22.2 ± 1.8 nM, 4.6 and 89.7 ± 3.6 nM.
Consider `C=CCN(CCCNC(=O)c1ccc(-c2cccs2)cc1)CCNC(=O)c1cc(Br)cc(OC)c1OC` [20b, N-(2-(Allyl(3-(4-(thiophen-2-yl)benzamido)propyl)amino)ethyl)-5-bromo-2,3-dimethoxybenzamide], for which, in assay [1], the Ki amounted to 5.8 ± 1 nM and the D2/D3 was 46.7. In assay [2], the Emax came out at 101 ± 7.9% and the IC50 was 51.6 ± 40.8 nM. The Ki in assay [3] is 243 ± 15 nM.
With `COc1cc(Br)cc(C(=O)NCCN(CCCNC(=O)c2ccc(-c3cccs3)cc2)Cc2ccc(F)cc2)c1OC` [20c, 5-Bromo-N-(2-((4-fluorobenzyl)(3-(4-(thiophen-2-yl)benzamido)propyl)amino)ethyl)-2,3-dimethoxybenzamide], the Ki stood at 299 ± 101 nM in assay [1] and 574 ± 170 nM in assay [3]. Moreover, the D2/D3 in assay [1] came out at 1.9.
Take `CCN(CCCNC(=O)c1ccnc2ccccc12)CCNC(=O)c1cc(Br)cc(OC)c1OC` [21b, N-(3-((2-(5-Bromo-2,3-dimethoxybenzamido)ethyl)(ethyl)amino)propyl)quinoline-4-carboxamide]: in assay [1], the Ki was determined as 13.2 ± 0.5 nM and the D2/D3 is given as 39.8. In assay [2], the Emax came to 75.2 ± 4.8% and the IC50 was found to be 19.6 ± 23.7 nM.
`CCN(CCCNC(=O)c1ccncc1)CCNC(=O)c1cc(Br)cc(OC)c1OC` [21f, N-(3-((2-(5-Bromo-2,3-dimethoxybenzamido)ethyl)(ethyl)amino)propyl)isonicotinamide]: in assay [1], the Ki is 6.1 ± 0.6 nM and the D2/D3 is listed as 53.7. For the same compound, in assay [2], the Emax was determined as 85.7 ± 13.1% and the IC50 came to 2.7 ± 0.6 nM. Besides, the Ki in assay [3] is 327 ± 32 nM.
`CCN(CCCNC(=O)c1cccc(N(C)C)c1)CCNC(=O)c1cc(Br)cc(OC)c1OC` [21h, 5-Bromo-N-(2-((3-(3-(dimethylamino)benzamido)propyl)(ethyl)amino)ethyl)-2,3-dimethoxybenzamide]: in assay [1], the Ki is 11.2 ± 1.4 nM and the D2/D3 came out at 22.1. Also, in assay [2], the Emax is 73.8 ± 14.9% and the IC50 came to 4.1 ± 2.1 nM. The Ki in assay [3] was determined as 248 ± 19 nM.
`CCN1CCC[C@H]1CNC(=O)c1cc(Br)cc(OC)c1OC` [[^11C]FLB457, FLB457]: in assay [4] (read-out: Ki for D2/D3 receptors (D2)), the Ki was 0.02 nM.
For `CCN(C)CCNC(=O)c1cc(Br)cc(OC)c1OC` [compound 12, 5-Bromo-N-(2-(ethyl(methyl)amino)ethyl)-2,3-dimethoxybenzamide], the Ki in assay [1] was 21.8 ± 5.1 nM; in assay [3], 89.2 ± 5.6 nM.
As to `CCN(C)CCCNC(=O)c1ccc(-c2cccs2)cc1` [compound 14, N-(3-(Ethyl(methyl)amino)propyl)-4-(thiophen-2-yl)benzamide], the Ki in assay [1] and in assay [3] was more than 1000 nM each time.
As to `C=CCN1CCC[C@H]1CNC(=O)c1cc(CCCF)cc(OC)c1OC` [fallypride], in assay [4] (read-out: Ki D2), the Ki is 0.02 nM.
